Test results reported in patent US4162324A, “Antibiotics 890A1 and 890A3” (Merck & Co., Inc., priority 1977, dated 1979).

How the values were obtained:
[1] = system: Alcaligenes faecalis ATCC 213; assay: In vitro antibacterial spectrum profile, zone of inhibition; format: cell-based; conditions: ATCC213, 33 μg/ml, read-out: Inhib. Zone Diam.
Procedure: (§1) The test to determine the antibiotic spectrum profile is carried out by application of a 0.015 ml. droplet on the surface of a 100×15 mm. petri plate containing 5 ml. of seeded nutrient agar and 0.2% yeast extract. The antibiotic 890A1 is tested at a level of 33 μg/ml. and the antibiotic 890A3 is tested at a level of 182 μg/ml.

[2] = system: Bacillus sp. MB-633; assay: as above; format: cell-based; conditions: SP.MB633, 33 μg/ml, read-out: Inhib. Zone Diam.
Procedure: as §1

[3] = system: Corynebacterium pseudoidph. ATCC 9742; assay: as above; format: cell-based; conditions: ATCC9742, 33 μg/ml, read-out: Inhib. Zone Diam.
Procedure: as §1

[4] = system: Proteus vulgaris ATCC 21100; assay: as above; format: cell-based; conditions: ATCC21100, 33 μg/ml, read-out: Inhib. Zone Diam.
Procedure: as §1

[5] = system: Proteus vulgaris MB-1012; assay: as above; format: cell-based; conditions: MB1012, 33 μg/ml, read-out: Inhib. Zone Diam.
[6] = system: Pseudomonas aeruginosa MB-979; assay: as above; format: cell-based; conditions: MB979, 33 μg/ml, read-out: Inhib. Zone Diam.
[7] = system: Serratia marcescens ATCC 990; assay: as above; format: cell-based; conditions: ATCC990, 33 μg/ml, read-out: Inhib. Zone Diam.
[8] = system: Staphlococcus aureus ATCC 6538 P; assay: as above; format: cell-based; conditions: 33 μg/ml; read-out: Inhib. Zone Diam.
[9] = system: Bacillus subtilis ATCC 6633; assay: as above; format: cell-based; conditions: ATCC6633, 33 μg/ml, read-out: Inhib. Zone Diam.
[10] = system: Sarcina lutea ATCC 9341; assay: as above; format: cell-based; conditions: Micrococcus luteus, ATCC9341; 33 μg/ml; read-out: Inhib. Zone Diam.
[11] = system: Staphylococcus aureus MB-698; assay: as above; format: cell-based; conditions: MB698, 33 μg/ml, read-out: Inhib. Zone Diam.
[12] = system: Streptococcus faecalis MB-753; assay: as above; format: cell-based; conditions: Enterococcus faecalis, MB753; 33 μg/ml; read-out: Inhib. Zone Diam.
[13] = system: Brucella bronchiseptica ATCC 4617; assay: microbe, parasite or virus in culture; format: cell-based; conditions: Bordetella bronchiseptica, ATCC4617, read-out: Inhib. Zone Diam.
[14] = system: Salmonella gallinarum MB-1287; assay: In vitro antibacterial spectrum profile, zone of inhibition; format: cell-based; conditions: Salmonella enterica, 33 μg/ml, read-out: Inhib. Zone Diam.
[15] = system: Vibrio percolans ATCC 8461; assay: as above; format: cell-based; conditions: Comamonas terrigena, ATCC8461, read-out: Inhib. Zone Diam.
[16] = system: Xanthomonas vesicatoria MB-815; assay: as above; format: cell-based; conditions: MB815, 33 μg/ml, read-out: Inhib. Zone Diam.
[17] = system: Escherichia coli MB-1418; assay: as above; format: cell-based; conditions: MB1418, read-out: Inhib. Zone Diam.
[18] = system: Pseudomonas stutzeri ATCC 11607; assay: as above; format: cell-based; conditions: Stutzerimonas stutzeri, ATCC11607; 33 μg/ml; read-out: Inhib. Zone Diam.
[19] = system: Klebsiella pneumoniae MB-1264; assay: as above; format: cell-based; conditions: MB1264, read-out: Inhib. Zone Diam.
[20] = system: Aerobacter aerogenes MB-835; assay: as above; format: cell-based; conditions: Klebsiella aerogenes, MB835; 33 μg/ml; read-out: Inhib. Zone Diam.
[21] = system: Erwinia atroseptica ATCC 4466; assay: as above; format: cell-based; conditions: Pectobacterium atrosepticum, ATCC4466; 33 μg/ml; read-out: Inhib. Zone Diam.
[22] = system: Pseudomonas aeruginosa MB-2824; assay: as above; format: cell-based; conditions: MB2824, 33 μg/ml, read-out: Inhib. Zone Diam.
[23] = system: Escherichia coli ATCC 9637; assay: In vitro antibacterial spectrum profile, zone of inhibition, synthetic medium; format: cell-based; conditions: ATCC9637, read-out: Inhib. Zone Diam.
[24] = system: Streptococcus faecium MB-2820; assay: In vitro antibacterial spectrum profile, zone of inhibition; format: cell-based; conditions: Enterococcus faecium, MB2820; 33 μg/ml; read-out: Inhib. Zone Diam.
[25] = system: Streptococcus agalactiae MB-2875; assay: as above; format: cell-based; conditions: MB2875, read-out: Inhib. Zone Diam.
[26] = system: Vibrio percolans resistant to ceph. C MB-2566; assay: as above; format: cell-based; conditions: Comamonas terrigena, read-out: Inhib. Zone Diam.
[27] = system: Proteus vulgaris (episome) MB-2112; assay: as above; format: cell-based; conditions: 33 μg/ml, read-out: Inhib. Zone Diam.
[28] = system: Proteus mirabilis MB-3126; assay: as above; format: cell-based; conditions: MB3126, 33 μg/ml, read-out: Inhib. Zone Diam.
[29] = system: Vibrio percolans ATCC 8461 + 2 × 10^5 units/ml penicillinase; assay: In vitro antibacterial spectrum profile, zone of inhibition, with penicillinase; format: cell-based; conditions: Comamonas terrigena, ATCC8461, 33 μg/ml, read-out: Inhib. Zone Diam.
[30] = system: Salmonella schottmuellari MB-2837; assay: In vivo protection of intraperitoneally infected mice; design: species or system Female white Swiss mice; conditions: ip; at infection and 6 hours later; calculated on the projected purity of 890A1 at 5500 units/mg
Procedure: (§2) In determining the in vivo activity, antibiotic 890A1 is dissolved in and diluted with 0.15M NaCl, 0.01M sodium phosphate, pH 7.0, to provide five fourfold concentrations of drug for testing. Female white Swiss mice, averaging about 21 g. in weight, were infected intraperitoneally with the test organism suspended in broth. The numbers of organisms injected were determined by standard plate-count techniques. At the time of infection and again 6 hours later, certain of the mice were treated intraperitoneally with the antibiotic. Five mice were used for each concentration of drug tested. An additional two mice, not infected, were treated with the antibiotic to determine whether the amount of agent injected was toxic. Controls of five mice for each of several dilutions of the infecting culture were included in each test in order to calculate the numbers of organisms that were lethal to 50% of the infected, untreated mice (LD50). This calculation was made using survival data of the seventh day after infection, at which time the amount of drug that should protect 50% of the infected mice (ED50) also was calculated.
All animals receiving this challenge and not treated with antibiotic died within 48 hours of the infection.

[31] = Electrophoresis; format: physicochemical; conditions: neutral pH
[32] = Solubility in water; format: physicochemical; conditions: sodium salt
[33] = system: gram-negative and gram-positive organisms; assay: In vivo activity; design: species or system Female white Swiss mice; conditions: mouse
Procedure: as §2

[34] = system: Vibrio percolans ATCC 8461; assay: Bioassay, agar plate disc-diffusion method
[35] = system: Vibrio percolans (ATCC 8461); assay: Assay procedure for determining "890 Assay Units" (disc-plate assay, cephaloridine standard); format: cell-based
Procedure: The conventional disc-plate assay procedure is employed and the discs are 1/2 inch in diameter. The routinely poured 10 ml./plate inoculated with Vibrio percolans (ATCC 8461) is used and the standard is cephaloridine. Four concentrations of cephaloridine constitute the standard -- 3.12, 6.25. 12.5 and 25 mcg per ml. with the 12.5 mcg per ml. as a reference solution. The zone diameters on a 5 ml. plate for the standard are as follows:
A unit is defined as the amount of antibiotic-producing a 25 mm. zone of inhibition on a 5 ml. plate. Therefore, in this assay a concentration of 12.5 mcg per ml. of cephaloridine is considered equivalent to 1 unit of 890A. Since the slope of the line for cephaloridine is 4.0 calculations of the potency of a sample are made using a slope of 4.0.

[36] = 1 unit/ml. = the concentration which produces a 25 mm zone of inhibition

**Q.** Which zone of inhibition at 33 µg/mL [1] does the source give for CC(=O)NCCSC1=C(C(=O)O)N2C(=O)C(C(C)O)C2C1 (centres unmarked) [Antibiotic 890A1] here?
**A.** 27 mm

**Q.** And the zone of inhibition at 33 µg/mL [2]?
**A.** 40 mm

**Q.** And the zone of inhibition at 33 µg/mL [3]?
**A.** 34 mm

**Q.** What about the zone of inhibition at 33 µg/mL [4] of the same compound?
**A.** 34 mm

**Q.** What about the zone of inhibition at 33 µg/mL [5] of the same compound?
**A.** 21 mm

**Q.** What about the zone of inhibition at 33 µg/mL [6] of the same compound?
**A.** 0 mm

**Q.** And the zone of inhibition at 33 µg/mL [7]?
**A.** 26 mm

**Q.** And the zone of inhibition at 33 µg/mL [8]?
**A.** 35 mm

**Q.** And the zone of inhibition at 33 µg/mL [9]?
**A.** 38 mm

**Q.** What about the zone of inhibition at 33 µg/mL [10] of the same compound?
**A.** 38 mm

**Q.** What about the zone of inhibition at 33 µg/mL [11] of the same compound?
**A.** 28 mm

**Q.** And the zone of inhibition at 33 µg/mL [12]?
**A.** 17 mm

**Q.** And the zone of inhibition at 33 µg/mL [13]?
**A.** 22 mm

**Q.** What about the zone of inhibition at 33 µg/mL [14] of the same compound?
**A.** 33 mm

**Q.** What about the zone of inhibition at 33 µg/mL [15] of the same compound?
**A.** 34 mm

**Q.** What about the zone of inhibition at 33 µg/mL [16] of the same compound?
**A.** 26 mm

**Q.** And the zone of inhibition at 33 µg/mL [17]?
**A.** 27 mm

**Q.** What about the zone of inhibition at 33 µg/mL [18] of the same compound?
**A.** 10 mm

**Q.** And the zone of inhibition at 33 µg/mL [19]?
**A.** 27 mm

**Q.** What about the zone of inhibition at 33 µg/mL [20] of the same compound?
**A.** 26 mm

**Q.** What about the zone of inhibition at 33 µg/mL [21] of the same compound?
**A.** 20 mm

**Q.** What about the zone of inhibition at 33 µg/mL [22] of the same compound?
**A.** 0 mm

**Q.** And the zone of inhibition at 33 µg/mL [23]?
**A.** 27 mm

**Q.** And the zone of inhibition at 33 µg/mL [24]?
**A.** 18 mm

**Q.** What about the zone of inhibition at 33 µg/mL [25] of the same compound?
**A.** 36 mm

**Q.** And the zone of inhibition at 33 µg/mL [26]?
**A.** 15 mm

**Q.** And the zone of inhibition at 33 µg/mL [27]?
**A.** 32 mm

**Q.** What about the zone of inhibition at 33 µg/mL [28] of the same compound?
**A.** 23 mm

**Q.** And the zone of inhibition at 33 µg/mL [29]?
**A.** 10 mm

**Q.** What about the “ED50 × 2 doses” value [30] of the same compound?
**A.** 3 µg

**Q.** What about the movement on electrophoresis [31] of the same compound?
**A.** acidic substance which moves toward the positive pole on electrophoresis at neutral pH

**Q.** And the solubility in water [32]?
**A.** very soluble in water

**Q.** What about the in vivo activity [33] of the same compound?
**A.** exhibits in vivo activity against gram-negative and gram-positive organisms

**Q.** And the “activity of the solution tested in vivo” value [34, 36]?
**A.** 908 Units/ml.

**Q.** And the “potency of 890A1 used in the in vivo test” value [34, 36]?
**A.** 5.5 units per μg

**Q.** And the antibiotic potency ([34]; 890A1 value defined as standard)?
**A.** 250 units per HAEA300 unit

**Q.** Which “slope of the line” value [35] does the source give for O=C(Cc1cccs1)N[C@@H]1C(=O)N2C(C(=O)[O-])=C(C[n+]3ccccc3)CS[C@H]12 [cephaloridine] here?
**A.** 4.0

**Q.** What about the zone of inhibition at 3.12 µg/mL ([35]; Comamonas terrigena, ATCC8461, 3.12 mcg/ml, 5 ml. plate, read-out: Zone Diameter) of the same compound?
**A.** 16.8 mm

**Q.** What about the zone of inhibition at 6.25 µg/mL ([35]; Comamonas terrigena, ATCC8461, 6.25 mcg/ml, 5 ml. plate, read-out: Zone Diameter) of the same compound?
**A.** 22.3 mm

**Q.** What about the zone of inhibition at 12.5 µg/mL ([35]; Comamonas terrigena, ATCC8461, 12.5 mcg/ml, 5 ml. plate, read-out: Zone Diameter) of the same compound?
**A.** 25 mm

**Q.** And the zone of inhibition at 25 µg/mL ([35]; Comamonas terrigena, ATCC8461, 25 mcg/ml, 5 ml. plate, read-out: Zone Diameter)?
**A.** 29.6 mm
